{
  "source": "patent US6699889B2",
  "about": "“Use of glucose uptake enhancer for reducing post-ischemic injury of the heart” (SmithKline Beecham p.l.c., priority 1998, dated 2004)",
  "key": {"[1]": {"test_system": "isolated working hearts from STZ-diabetic rats", "assay": "Isolated working hearts from STZ-diabetic male Wistar rats: baseline ventricular function and zero-flow ischaemia and re-perfusion", "conditions": "diabetic rat hearts", "method": "(§1) A solution of streptozotocin (STZ commercially available) was prepared in citrate buffer (40 mg/ml).\nThe development of diabetes and its persistence were monitored by serial quantitative measurements of glucose in the urine with reagent strips. On the day of the experiment, the severity of diabetes was assessed by measuring glucose concentrations from blood samples collected at the time of heart excision. Only rats with plasma glucose levels exceeding 20 mM were considered diabetic and included in these experiments.\n(§2) Perfusion of isolated hearts: Rats were anaesthetized using thiopental sodium (50 mg/kg body weight intraperitoneally). Hearts from normoglycaemic and one-month STZ-induced diabetic rats, were quickly removed and immersed in ice-cold buffer to produce an immediate cessation of contractility. The aorta was dissected free and then mounted onto a cannula attached to a perfusion apparatus. Retrograde perfusion of the heart was started for 10 min by the Langendorff method and then switched to perfusion using the working-heart technique. […] The perfusate was not recirculated. Preload was held at a pressure of 15 cm H2O and afterload, as well as coronary perfusion pressure, were kept constant at 80 cm H2O.\nStroke volume (ml/beat) was derived by dividing cardiac output by heart rate. […]\n(§3) Statistical significance of differences was determined using Student's t-test."}, "[2]": {"test_system": "isolated working hearts from male Wistar rats", "assay": "Isolated working hearts from normal male Wistar rats: baseline ventricular function and recovery after 30 min zero-flow ischaemia and re-perfusion", "conditions": "normal rat hearts", "method": "as §1\nAn acclimatisation period of at least one week was allowed prior to experiment.\nas §2\nStroke volume (ml/beat) was derived by dividing cardiac output by heart rate.\nInduction of global ischaemia and re-perfusion: Total ischaemia was initiated by clamping the left atrium and the aortic perfusion tubes and reducing coronary flow to zero for 30 minutes. The hearts were then re-perfused at 37° C. in working heart mode and recovery of ventricular function was followed for 30 minutes.\nas §3"}},
  "data": [
    {"smiles": "CN(CCOc1ccc(CC2SC(=O)NC2=O)cc1)c1ccccn1", "note": "(centres unmarked) [Compound (I), 5-[4-[2-(N-methyl-N-(2-pyridyl)amino)ethoxy]benzyl]thiazolidine-2,4-dione]", "values": [
      {"measurement": "Protective properties in hearts subjected to zero-flow ischaemia in vitro", "setting": "[1]", "result": "protective properties of rapid onset"},
      {"measurement": "Protective properties in hearts subjected to zero-flow ischaemia in vitro", "setting": "[2]", "result": "protective properties of rapid onset"}
    ]}
  ]
}
